Test results: ChEMBL document CHEMBL4507291 (2021)

Columns and labels:
[1] = biological target: Serine/threonine-protein kinase tousled-like 1 (Homo sapiens) (UniProt Q9UKI8)
[2] = biological target: Delta-type opioid receptor (Homo sapiens) (UniProt P41143); conditions: Compound concentration 10.0 uM
[3] = biological target: T1, Ephrin type-B receptor 2 (Homo sapiens) (UniProt P29323)
T1 sequence (whole entry): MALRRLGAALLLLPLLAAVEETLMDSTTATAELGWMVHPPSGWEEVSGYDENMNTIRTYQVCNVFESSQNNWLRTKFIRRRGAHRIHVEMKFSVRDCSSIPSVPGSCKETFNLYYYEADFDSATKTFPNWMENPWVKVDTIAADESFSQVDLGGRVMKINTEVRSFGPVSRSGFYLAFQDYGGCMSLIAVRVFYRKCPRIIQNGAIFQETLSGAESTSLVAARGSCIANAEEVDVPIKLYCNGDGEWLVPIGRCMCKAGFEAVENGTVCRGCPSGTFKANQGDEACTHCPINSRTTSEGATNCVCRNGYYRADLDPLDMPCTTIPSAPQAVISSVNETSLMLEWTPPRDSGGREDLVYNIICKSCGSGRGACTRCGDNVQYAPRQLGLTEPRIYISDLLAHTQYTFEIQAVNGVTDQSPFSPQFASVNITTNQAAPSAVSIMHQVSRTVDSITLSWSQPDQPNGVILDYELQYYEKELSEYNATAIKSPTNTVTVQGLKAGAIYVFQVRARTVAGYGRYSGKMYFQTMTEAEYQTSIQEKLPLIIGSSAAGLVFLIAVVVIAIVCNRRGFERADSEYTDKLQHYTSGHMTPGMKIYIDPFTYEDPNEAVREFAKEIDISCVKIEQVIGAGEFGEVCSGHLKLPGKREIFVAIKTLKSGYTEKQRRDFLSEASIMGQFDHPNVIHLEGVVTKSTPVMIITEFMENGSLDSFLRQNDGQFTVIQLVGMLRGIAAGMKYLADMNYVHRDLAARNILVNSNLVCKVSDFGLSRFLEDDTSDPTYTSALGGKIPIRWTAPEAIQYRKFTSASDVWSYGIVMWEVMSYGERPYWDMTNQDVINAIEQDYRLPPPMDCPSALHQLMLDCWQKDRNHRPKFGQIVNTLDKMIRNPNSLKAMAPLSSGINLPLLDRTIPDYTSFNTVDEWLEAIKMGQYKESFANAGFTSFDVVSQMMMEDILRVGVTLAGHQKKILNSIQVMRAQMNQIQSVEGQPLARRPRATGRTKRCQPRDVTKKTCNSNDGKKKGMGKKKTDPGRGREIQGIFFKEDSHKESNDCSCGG

[4] = biological target: MAP kinase-interacting serine/threonine-protein kinase 2 (Homo sapiens) (UniProt Q9HBH9)
Chain of MAP kinase-interacting serine/threonine-protein kinase 2 (Homo sapiens) (Q9HBH9 whole entry, looked up): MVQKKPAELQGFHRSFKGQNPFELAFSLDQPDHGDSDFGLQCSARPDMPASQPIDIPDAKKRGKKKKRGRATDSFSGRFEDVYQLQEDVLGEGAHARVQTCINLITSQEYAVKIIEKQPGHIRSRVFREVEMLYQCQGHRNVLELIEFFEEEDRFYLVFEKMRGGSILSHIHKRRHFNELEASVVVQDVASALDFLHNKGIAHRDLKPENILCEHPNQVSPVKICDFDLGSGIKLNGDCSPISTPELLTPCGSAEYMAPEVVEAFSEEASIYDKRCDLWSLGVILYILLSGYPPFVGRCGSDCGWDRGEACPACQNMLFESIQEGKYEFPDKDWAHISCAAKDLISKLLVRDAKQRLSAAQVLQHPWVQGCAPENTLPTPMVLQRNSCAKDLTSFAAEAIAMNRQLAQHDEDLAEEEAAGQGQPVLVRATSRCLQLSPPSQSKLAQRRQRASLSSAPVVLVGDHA

[5] = biological target: T2, Dual specificity protein kinase TTK (Homo sapiens) (UniProt P33981)
T2 sequence (whole entry): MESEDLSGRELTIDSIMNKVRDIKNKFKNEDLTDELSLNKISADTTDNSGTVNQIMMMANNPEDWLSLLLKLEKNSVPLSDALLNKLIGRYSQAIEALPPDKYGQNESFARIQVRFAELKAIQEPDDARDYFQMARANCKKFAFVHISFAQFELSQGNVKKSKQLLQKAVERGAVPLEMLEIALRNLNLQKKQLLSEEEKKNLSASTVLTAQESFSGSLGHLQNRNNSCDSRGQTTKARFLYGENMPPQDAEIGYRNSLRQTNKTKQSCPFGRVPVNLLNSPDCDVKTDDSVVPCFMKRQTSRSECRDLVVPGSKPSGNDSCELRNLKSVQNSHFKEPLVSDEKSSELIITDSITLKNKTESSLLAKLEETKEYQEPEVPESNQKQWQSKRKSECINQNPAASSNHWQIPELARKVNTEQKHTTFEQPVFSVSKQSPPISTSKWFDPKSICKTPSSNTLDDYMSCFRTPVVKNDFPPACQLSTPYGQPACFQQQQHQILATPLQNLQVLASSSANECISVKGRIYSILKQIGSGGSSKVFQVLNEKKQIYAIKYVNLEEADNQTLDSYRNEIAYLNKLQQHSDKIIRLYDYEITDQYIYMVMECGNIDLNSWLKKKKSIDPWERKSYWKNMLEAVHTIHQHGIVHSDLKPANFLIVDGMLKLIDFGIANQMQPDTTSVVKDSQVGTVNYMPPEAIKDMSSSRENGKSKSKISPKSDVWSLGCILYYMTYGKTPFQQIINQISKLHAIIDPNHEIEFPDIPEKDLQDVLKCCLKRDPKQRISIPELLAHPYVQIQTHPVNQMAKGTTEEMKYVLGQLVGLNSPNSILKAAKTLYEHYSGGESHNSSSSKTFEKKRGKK

[6] = biological target: Cyclin-dependent kinase-like 5 (Homo sapiens) (UniProt O76039)
Chain of Cyclin-dependent kinase-like 5 (Homo sapiens) (O76039 whole entry): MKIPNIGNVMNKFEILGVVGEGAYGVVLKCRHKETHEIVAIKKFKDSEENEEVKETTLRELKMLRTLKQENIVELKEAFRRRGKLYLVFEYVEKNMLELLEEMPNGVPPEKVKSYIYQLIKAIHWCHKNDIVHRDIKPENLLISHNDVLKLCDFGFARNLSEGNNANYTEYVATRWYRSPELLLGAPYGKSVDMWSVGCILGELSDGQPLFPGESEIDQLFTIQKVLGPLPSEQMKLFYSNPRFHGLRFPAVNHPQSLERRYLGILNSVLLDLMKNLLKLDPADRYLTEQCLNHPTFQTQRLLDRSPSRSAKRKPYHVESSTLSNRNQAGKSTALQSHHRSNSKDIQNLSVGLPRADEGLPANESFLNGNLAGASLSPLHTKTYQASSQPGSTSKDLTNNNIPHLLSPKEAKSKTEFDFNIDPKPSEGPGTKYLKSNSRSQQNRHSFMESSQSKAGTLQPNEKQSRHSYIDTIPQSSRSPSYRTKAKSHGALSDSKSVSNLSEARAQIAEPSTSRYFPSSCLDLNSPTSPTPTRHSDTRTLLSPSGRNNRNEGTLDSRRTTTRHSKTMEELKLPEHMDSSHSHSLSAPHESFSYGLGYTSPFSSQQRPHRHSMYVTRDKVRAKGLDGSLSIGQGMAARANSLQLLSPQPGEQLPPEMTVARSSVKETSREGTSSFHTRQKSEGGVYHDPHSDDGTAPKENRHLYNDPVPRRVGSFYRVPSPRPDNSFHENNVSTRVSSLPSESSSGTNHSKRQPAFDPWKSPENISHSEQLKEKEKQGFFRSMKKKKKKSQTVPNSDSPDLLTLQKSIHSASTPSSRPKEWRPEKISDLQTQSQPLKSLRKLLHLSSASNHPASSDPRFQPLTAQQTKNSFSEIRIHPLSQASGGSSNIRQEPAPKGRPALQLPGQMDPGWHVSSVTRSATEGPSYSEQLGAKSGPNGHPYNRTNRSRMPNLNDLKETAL

[7] = biological target: Serine/threonine-protein kinase Nek3 (Homo sapiens) (UniProt P51956)
Chain of Serine/threonine-protein kinase Nek3 (Homo sapiens) (P51956 whole entry): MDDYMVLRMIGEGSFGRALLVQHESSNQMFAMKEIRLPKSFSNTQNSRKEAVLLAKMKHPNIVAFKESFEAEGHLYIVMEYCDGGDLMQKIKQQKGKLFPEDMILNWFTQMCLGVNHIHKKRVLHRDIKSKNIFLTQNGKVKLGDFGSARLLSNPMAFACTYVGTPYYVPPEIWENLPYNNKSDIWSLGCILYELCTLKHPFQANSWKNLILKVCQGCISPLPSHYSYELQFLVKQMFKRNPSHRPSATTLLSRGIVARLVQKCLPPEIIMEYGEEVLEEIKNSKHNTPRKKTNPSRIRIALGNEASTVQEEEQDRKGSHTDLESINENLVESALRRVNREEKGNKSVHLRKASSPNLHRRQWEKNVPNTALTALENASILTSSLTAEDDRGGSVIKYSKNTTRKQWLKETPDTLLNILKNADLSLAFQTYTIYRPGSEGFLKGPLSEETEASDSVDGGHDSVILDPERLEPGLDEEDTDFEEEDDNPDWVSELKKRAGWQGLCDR

[8] = Compound concentration 100.0 nM
[9] = Compound concentration 1000.0 nM

Chain of Delta-type opioid receptor (Homo sapiens) (P41143 whole entry): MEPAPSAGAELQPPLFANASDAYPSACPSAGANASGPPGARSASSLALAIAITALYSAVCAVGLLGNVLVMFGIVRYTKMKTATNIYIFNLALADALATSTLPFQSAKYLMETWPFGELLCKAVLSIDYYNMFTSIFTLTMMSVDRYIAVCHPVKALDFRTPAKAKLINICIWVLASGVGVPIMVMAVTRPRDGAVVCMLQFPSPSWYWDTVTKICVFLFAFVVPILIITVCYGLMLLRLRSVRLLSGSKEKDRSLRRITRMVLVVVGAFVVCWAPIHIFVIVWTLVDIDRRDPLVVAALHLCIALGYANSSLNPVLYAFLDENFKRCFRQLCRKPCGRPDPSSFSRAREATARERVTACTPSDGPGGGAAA
Chain of Serine/threonine-protein kinase tousled-like 1 (Homo sapiens) (Q9UKI8 whole entry): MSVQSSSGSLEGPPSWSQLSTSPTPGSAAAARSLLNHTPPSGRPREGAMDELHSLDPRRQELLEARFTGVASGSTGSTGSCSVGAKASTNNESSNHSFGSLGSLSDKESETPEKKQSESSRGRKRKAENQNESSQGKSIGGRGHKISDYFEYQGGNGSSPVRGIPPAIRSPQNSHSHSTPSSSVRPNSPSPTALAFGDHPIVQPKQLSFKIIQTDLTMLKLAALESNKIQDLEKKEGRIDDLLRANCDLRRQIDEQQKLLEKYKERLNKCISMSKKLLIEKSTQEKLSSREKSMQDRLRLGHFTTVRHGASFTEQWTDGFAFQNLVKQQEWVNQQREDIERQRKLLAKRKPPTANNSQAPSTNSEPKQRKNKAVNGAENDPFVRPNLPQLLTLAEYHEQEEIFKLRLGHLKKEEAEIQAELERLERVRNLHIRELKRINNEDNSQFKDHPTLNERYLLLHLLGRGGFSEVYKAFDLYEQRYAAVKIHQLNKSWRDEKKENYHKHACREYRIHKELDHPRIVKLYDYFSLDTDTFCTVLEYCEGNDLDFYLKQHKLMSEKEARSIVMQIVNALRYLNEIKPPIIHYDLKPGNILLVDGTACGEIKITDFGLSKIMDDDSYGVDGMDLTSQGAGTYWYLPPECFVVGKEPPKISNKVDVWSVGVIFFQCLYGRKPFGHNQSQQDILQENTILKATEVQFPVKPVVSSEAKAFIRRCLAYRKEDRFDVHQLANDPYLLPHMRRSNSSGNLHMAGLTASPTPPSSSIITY

C[C@@H]1CN(c2cc(-c3n[nH]c4ccc(OC5(C)CC5)cc34)ncn2)C[C@H](C)O1 [MLi-2]
inactive: residual activity [1, 8] 94% | inhibition [2] 6.66% | residual activity [3, 8] 90% | residual activity [4, 8] 74% | residual activity [5, 8] 74% | residual activity [6, 8] 72% | residual activity [7, 8] 76%

C[C@@H]1CN(c2cc(-c3nn(C)c4ccc(OC5(C)CC5)cc34)ncn2)C[C@H](C)O1 [MLi-2-NC]
inactive: residual activity [1, 9] 100% | inhibition [2] 23.3% | residual activity [3, 9] 95% | residual activity [4, 9] 67% | residual activity [5, 9] 100% | residual activity [6, 9] 64% | residual activity [7, 9] 99%
